Measurements: paper PMC6288471 (Frontiers in Veterinary Science, 2018)
Entries after “also recorded” stand apart in the source; their conditions may differ. Where two headings read alike, the source gives them in different places.

Key:
[1] = Clinical pathologic testing: select biochemical tests; assay type: in vivo, horses; details: for SDH (sorbitol dehydrogenase), median (range): reference interval 0–11; for GLDH (glutamate dehydrogenase), median (range): reference interval 1–8; for UN (urea nitrogen), median (range): reference interval 3.9–10.0; for SAA (serum amyloid A), median (range): reference interval 5–20, 5 mg/L is the lower limit of detection; for GGT (gamma glutamyl transferase), median (range): reference interval 8–29; for GLOB (globulins), median (range): reference interval 24–44; for ALB (albumin), median (range): reference interval 30–37; for CREAT (creatinine), median (range): reference interval 53–141; for TP (total protein), median (range): reference interval 57–77
Method: Automated hemogram results were obtained from the EDTA-anticoagulated blood with a hematology analyzer (ADVIA 2120, Siemens Healthcare Diagnostics Inc., Tarrytown, NJ, USA). To verify the automated platelet counts, modified Wright's-stained blood smears were evaluated for platelet clumps by trained medical technologists. Biochemical analysis for renal analytes (serum urea nitrogen and creatinine concentrations), liver enzymes (sorbitol dehydrogenase, glutamate dehydrogenase, aspartate aminotransferase and gamma glutamyl transferase activities), protein-related analytes (total protein, albumin, and globulin concentrations), and the acute phase protein, serum amyloid A, were performed with an automated chemistry analyzer (Hitachi P modular, Roche Diagnostics, Indianapolis, IN, USA) using manufacturer's reagents, with the exception of sorbitol dehydrogenase (Sigma-Aldrich), glutamate dehydrogenase (Randox Laboratories Ltd, Antrim, UK), and serum amyloid A (LZ test Eiken-SAA, Mast House, Merseyside, UK).

[2] = Pharmacokinetics of apixaban after oral and intravenous administration; plasma concentrations by UPLC-MS, two-compartment model; assay type: in vivo; details: horses; for half-life / clearance / Vd: iv
Method: The first and last treatments for each horse were IV administration of drug or placebo (Figure 1). […] Investigators were blinded to each treatment until the conclusion of the study.
Blood samples were collected before drug administration (time 0) and at 3 (IV) or 15 (PO) min, then at 30, 45 min, 1, 2, 3, 4, 6, 8, and 24 h after drug administration into 6-mL syringes (Monoject Syringe, Covidien Ltd, Mansfield, MA, USA) prefilled with 3.8% citrate anticoagulant (Sigma-Aldrich, St Louis, MO, USA) maintaining a ratio of 9:1 blood:citrate. The citrate-anticoagulated blood was used to prepare platelet-poor plasma (PPP) for measurement of UPLC-MS concentrations, anti-Xa activities and dilute prothrombin times (dPT) and platelet-rich plasma (PRP) for flow cytometric analysis of ex vivo platelet activation in response to exposure to EHV-1. Blood was also collected into EDTA- and non-anticoagulant samples for clinical pathologic testing before and 24 h after each treatment (Figure 1). With the exception of 24 h samples, blood was collected at each time point through an indwelling jugular catheter (14 G × 15 cm, Milacath®, MILA International, Florence, KY, USA) after removing 20–30 mL of blood. Patency of the catheters was maintained by flushes with sterile saline solution (0.9% sodium chloride injection USP, Baxter Healthcare Corporation, Deerfield, IL, USA) after each blood draw. The catheter was removed after collection of the 8 h sample. For IV administration, a second catheter was placed in the opposite jugular vein for bolus drug delivery and removed immediately after drug administration and flushing of the catheter with sterile saline. For the 24 h sample, blood was collected from the jugular vein (the vein contralateral to that used for the indwelling catheter) into a 3.8% citrate anticoagulant prefilled 6-mL syringe via an 18 G needle (Monoject Veterinary Needle, Covidien Ltd, Mansfield, MA, USA) and into EDTA- and non-anticoagulant vacutainers (Becton-Dickinson, Franklin Lakes, NJ, USA) via a vacutainer needle (21 G, Becton-Dickinson Eclipse™ Vacutainer® with pre-attached holder).
This was performed as previously described ([33]). Analysis by UPLC-MS/MS was performed on a 2D UPLC system (Waters Acquity UPLC H-class with 2D Technology System, Waters GmbH, Eschborn, Germany) directly coupled to a Xevo TQ-S tandem mass spectrometer (Waters GmbH, Eschborn, Germany) which was operated in electrospray positive ionization mode. The system control and data acquisition were performed using MassLynx NT 4.1 software with automated data processing by the MassLynx QuanLynx program provided with the instrument. The lower limit of detection for all DOACs of the UPLC-MS/MS method was < 0.2 ng/mL. Since DOAC values < 7 ng/ml were not clinically relevant, all time points below this value were considered zero.
Pharmacokinetic analysis was performed using a two-compartment open model with weighting of 1/y^2 (Phoenix®, WinNonlin® software, Certara Inc., St. Louis, Missouri).
Secondary parameters calculated include distribution (α) and elimination (β) half-lives (T½), microdistribution rate constants, area-under-the-curve (AUC), apparent volume of distribution at steady-state (VSS), systemic clearance (CL), and mean residence time (MRT).

[3] = single oral dose 0.2 mg/kg, 0.2 mg/kg

COc1ccc(-n2nc(C(N)=O)c3c2C(=O)N(c2ccc(N4CCCCC4=O)cc2)CC3)cc1 [apixaban]
SDH (sorbitol dehydrogenase), median (range) ([1]; IV, T0 (before)): 4 (3–4) U/L | GLDH (glutamate dehydrogenase), median (range) ([1]; IV, T0 (before)): 4 (3–4) U/L | UN (urea nitrogen), median (range) ([1]; IV, T0 (before)): 6.8 (6.1–7.8) mmol/L | SAA (serum amyloid A), median (range) ([1]; IV, T0 (before)): 5 (5–9) mg/L | GGT (gamma glutamyl transferase), median (range) ([1]; IV, T0 (before)): 11 (10–13) U/L | GLOB (globulins), median (range) ([1]; IV, T0 (before)): 36 (32–38) g/L | ALB (albumin), median (range) ([1]; IV, T0 (before)): 32 (30–34) g/L | CREAT (creatinine), median (range) ([1]; IV, T0 (before)): 106 (97–106) μmol/L | TP (total protein), median (range) ([1]; IV, T0 (before)): 68 (66–71) g/L | SDH (sorbitol dehydrogenase), median (range) ([1]; IV, T24): 3 (2–4) U/L | GLDH (glutamate dehydrogenase), median (range) ([1]; IV, T24): 3 (3–5) U/L | UN (urea nitrogen), median (range) ([1]; IV, T24): 5.7 (5.4–7.5) mmol/L | SAA (serum amyloid A), median (range) ([1]; IV, T24): 8 (5–12) mg/L | GGT (gamma glutamyl transferase), median (range) ([1]; IV, T24): 11 (10–13) U/L | GLOB (globulins), median (range) ([1]; IV, T24): 37 (32–40) g/L | ALB (albumin), median (range) ([1]; IV, T24): 32 (30–35) g/L | CREAT (creatinine), median (range) ([1]; IV, T24): 115 (106–115) μmol/L | TP (total protein), median (range) ([1]; IV, T24): 68 (67–72) g/L | SDH (sorbitol dehydrogenase), median (range) ([1]; PO, T0 (before)): 5 (4–10) U/L | GLDH (glutamate dehydrogenase), median (range) ([1]; PO, T0 (before)): 6 (4–10) U/L | UN (urea nitrogen), median (range) ([1]; PO, T0 (before)): 6.4 (5.4–7.1) mmol/L | SAA (serum amyloid A), median (range) ([1]; PO, T0 (before)): 5 (5–7) mg/L | GGT (gamma glutamyl transferase), median (range) ([1]; PO, T0 (before)): 12 (7–13) U/L | GLOB (globulins), median (range) ([1]; PO, T0 (before)): 35 (30–38) g/L | ALB (albumin), median (range) ([1]; PO, T0 (before)): 32 (29–32) g/L | CREAT (creatinine), median (range) ([1]; PO, T0 (before)): 97 (88–106) μmol/L | TP (total protein), median (range) ([1]; PO, T0 (before)): 67 (62–70) g/L | SDH (sorbitol dehydrogenase), median (range) ([1]; PO, T24): 4 (3–5) U/L | GLDH (glutamate dehydrogenase), median (range) ([1]; PO, T24): 4 (4–7) U/L | UN (urea nitrogen), median (range) ([1]; PO, T24): 5.7 (4.6–6.4) mmol/L | SAA (serum amyloid A), median (range) ([1]; PO, T24): 5 (5–5) mg/L | GGT (gamma glutamyl transferase), median (range) ([1]; PO, T24): 12 (9–13) U/L | GLOB (globulins), median (range) ([1]; PO, T24): 36 (30–39) g/L | ALB (albumin), median (range) ([1]; PO, T24): 32 (29–33) g/L | CREAT (creatinine), median (range) ([1]; PO, T24): 106 (97–115) μmol/L | TP (total protein), median (range) ([1]; PO, T24): 65 (63–72) g/L | changes in chosen biochemical test results ([1]; horses, 24 h after PO or IV administration): no significant changes | half-life ([2]; horse, plasma, IV administration, read-out: elimination half-life (converted)): 1.3 ± 0.2 h | clearance ([2]; horse, plasma, IV administration, read-out: rate of clearance (converted)): 2.53 mL/min/kg | Vd ([2]; horse, plasma, IV administration, read-out: volume of distribution (VDSS)): 0.0933 ± 0.0756 L/kg | Tmax ([2]; horse, plasma, IV administration, read-out: time of peak plasma concentration (converted)): 3 min | volume of distribution (VDSS) ([2]; IV administration): ~ 90 mL/kg | time by which plasma apixaban decreased to undetectable levels ([2]; IV administration, all horses): ≤ 8 h | apixaban in plasma after oral administration (UPLC-MS) [2, 3]: no detectable apixaban in plasma; also recorded: not detected in plasma | oral absorption [2, 3]: not orally absorbed | clearance ([2]; plasma, single IV dose […], read-out: CL (systemic clearance), geometric mean (converted)): 2.45 mL/min/kg | clearance ([2]; plasma, single IV dose […], read-out: CL (systemic clearance), mean (converted)): 2.53 mL/min/kg | Vd ([2]; plasma, single IV dose […], read-out: VC (apparent volume of distribution for central compartment), geometric mean): 0.0164 L/kg | Vd ([2]; plasma, single IV dose […], read-out: VC (apparent volume of distribution for central compartment), mean): 0.0201 L/kg | Vd ([2]; plasma, single IV dose […], read-out: VSS (volume of distribution at steady-state), geometric mean): 0.0718 L/kg | Vd ([2]; plasma, single IV dose […], read-out: VSS (volume of distribution at steady-state), mean): 0.0933 L/kg | half-life ([2]; plasma, single IV dose […], read-out: t½β (half-life of the elimination phase), geometric mean (converted)): 1.27 h | half-life ([2]; plasma, single IV dose […], read-out: t½β (half-life of the elimination phase), mean (converted)): 1.28 h
